Source: patent publication US20250051337A1 (priority 2021, published 2025)
Read-outs that look alike come from different tables or passages of the source.

Legend:
[1] = target: STK4 (Homo sapiens (Human), UniProt Q13043); assay: ADP-Glo kinase assay, STK4; format: biochemical
Description: (§1) The STK3 kinase assay was performed in 5 μL reaction buffer containing 50 ng recombinant human STK3 protein (full length, SignalChem #S24-10G; Richmond, Canada), 250 μg/mL myelin basic protein (Sigma-Aldrich #M1891; St. Louis, MO, USA), and 50 μM ATP (Sigma-Aldrich #A7699). The STK4 kinase assay was performed in 5 μL reaction buffer containing 50 ng recombinant human STK4 protein (full length, SignalChem #S25-10G), 300 μg/mL Axltide (SignalChem #A16-58), and 50 μM ATP. […] Three experiments were performed, each in triplicate.

[2] = target: STK3 (Homo sapiens (Human), UniProt Q13188); assay: ADP-Glo kinase assay, STK3; format: biochemical
Description: as §1

[3] = ADP-Glo, 50 μM ATP, read-out: STK4 IC50
[4] = ADP-Glo, 50 μM ATP, read-out: STK3 IC50

Chain of STK3 (Q13188 whole entry): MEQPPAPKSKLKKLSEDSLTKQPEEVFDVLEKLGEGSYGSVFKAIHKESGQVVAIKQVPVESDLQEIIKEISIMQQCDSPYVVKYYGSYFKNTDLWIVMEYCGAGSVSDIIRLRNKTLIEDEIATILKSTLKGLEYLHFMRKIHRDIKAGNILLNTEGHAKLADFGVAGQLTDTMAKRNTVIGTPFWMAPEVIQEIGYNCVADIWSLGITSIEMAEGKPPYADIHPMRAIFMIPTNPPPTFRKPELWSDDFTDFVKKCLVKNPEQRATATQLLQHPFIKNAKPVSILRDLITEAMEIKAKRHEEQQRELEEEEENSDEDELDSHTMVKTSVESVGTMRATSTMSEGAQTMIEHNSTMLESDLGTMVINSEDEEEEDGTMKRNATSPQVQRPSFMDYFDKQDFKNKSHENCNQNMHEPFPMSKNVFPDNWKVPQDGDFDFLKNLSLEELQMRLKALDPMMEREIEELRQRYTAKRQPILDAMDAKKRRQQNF
Chain of STK4 (Q13043 whole entry): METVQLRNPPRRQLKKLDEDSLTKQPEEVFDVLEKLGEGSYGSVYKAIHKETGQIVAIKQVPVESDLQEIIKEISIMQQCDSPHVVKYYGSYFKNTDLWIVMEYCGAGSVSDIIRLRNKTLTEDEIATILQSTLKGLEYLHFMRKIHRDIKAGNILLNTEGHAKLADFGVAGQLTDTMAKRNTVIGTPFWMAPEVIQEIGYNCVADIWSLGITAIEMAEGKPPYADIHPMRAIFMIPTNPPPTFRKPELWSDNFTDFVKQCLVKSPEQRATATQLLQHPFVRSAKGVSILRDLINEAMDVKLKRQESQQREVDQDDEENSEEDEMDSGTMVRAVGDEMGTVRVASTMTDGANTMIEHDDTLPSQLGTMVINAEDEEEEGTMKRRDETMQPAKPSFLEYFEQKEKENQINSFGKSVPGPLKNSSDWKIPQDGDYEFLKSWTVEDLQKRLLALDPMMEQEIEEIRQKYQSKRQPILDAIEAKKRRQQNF

| Structure (SMILES) | IC50 [1, 3] [µM] | IC50 [2, 4] [µM] | IC50 [2] [µM] | IC50 [1] [µM] |
| --- | --- | --- | --- | --- |
| c1ccc(-c2c[nH]c3ncnc(N4CCOCC4)c23)cc1 [Compound 1, 4-(5-Phenyl-7H-pyrrolo[2,3-d]pyrimidin-4-yl)morpholine] | < 1 | < 1 | – | – |
| Fc1ccccc1-c1c[nH]c2ncnc(N3CCOCC3)c12 [Compound 3, 4-(5-(2-Fluorophenyl)-7H-pyrrolo[2,3-d]pyrimidin-4-yl)morpholine] | – | < 1 | – | – |
| COc1ccccc1-c1c[nH]c2ncnc(N3CCOCC3)c12 [Compound 4, 4-(5-(2-Methoxyphenyl)-7H-pyrrolo[2,3-d]pyrimidin-4-yl)morpholine] | – | < 1 | – | – |
| COc1cccc(-c2c[nH]c3ncnc(N4CCOCC4)c23)c1 [Compound 8, 4-(5-(3-Methoxyphenyl)-7H-pyrrolo[2,3-d]pyrimidin-4-yl)morpholine] | – | < 1 | – | – |
| Cc1ccc(-c2c[nH]c3ncnc(N4CCOCC4)c23)cc1 [Compound 9, 4-(5-(p-tolyl)-7H-pyrrolo[2,3-d]pyrimidin-4-yl)morpholine] | – | – | 1 to 5 | – |
| Fc1ccc(-c2c[nH]c3ncnc(N4CCOCC4)c23)cc1 [Compound 10, 4-(5-(4-Fluorophenyl)-7H-pyrrolo[2,3-d]pyrimidin-4-yl)morpholine] | – | < 1 | – | – |
| c1csc(-c2c[nH]c3ncnc(N4CCOCC4)c23)c1 [Compound 12, 4-(5-(Thiophen-2-yl)-7H-pyrrolo[2,3-d]pyrimidin-4-yl)morpholine] | – | < 1 | – | – |
| c1coc(-c2c[nH]c3ncnc(N4CCOCC4)c23)c1 [Compound 13, 4-(5-(Furan-2-yl)-7H-pyrrolo[2,3-d]pyrimidin-4-yl)morpholine] | – | < 1 | – | – |
| c1nc(N2CCOCC2)c2c(-c3ccoc3)c[nH]c2n1 [Compound 14, 4-(5-(Furan-3-yl)-7H-pyrrolo[2,3-d]pyrimidin-4-yl)morpholine] | – | < 1 | – | – |
| CN(C)c1ncnc2[nH]cc(-c3cccc(Cl)c3)c12 [Compound 17, 5-(3-Chlorophenyl)-N,N-dimethyl-7H-pyrrolo[2,3-d]pyrimidin-4-amine] | – | < 1 | – | – |
| Clc1cccc(-c2c[nH]c3ncnc(NCC4CC4)c23)c1 [Compound 18, 5-(3-Chlorophenyl)-N-(cyclopropylmethyl)-7H-pyrrolo[2,3-d]pyrimidin-4-amine] | – | < 1 | – | – |
| Clc1cccc(-c2n[nH]c3ncnc(N4CCOCC4)c23)c1 [Compound 19, 4-(3-(3-chlorophenyl)-1H-pyrazolo[3,4-d]pyrimidin-4-yl)morpholine] | – | – | 1 to 5 | 1 to 5 |
| Clc1cccc(-c2csc3ncnc(N4CCOCC4)c23)c1 [Compound 20, 4-(5-(3-Chlorophenyl)thieno[2,3-d]pyrimidin-4-yl)morpholine] | – | > 5 | – | – |
| Clc1cccc(-c2coc3ncnc(N4CCOCC4)c23)c1 [Compound 21, 5-(3-Chlorophenyl)-4-morpholinofuro[2,3-d]pyrimidine] | – | > 5 | – | – |
| Clc1cccc(-c2c[nH]c3ccnc(N4CCOCC4)c23)c1 [Compound 22, 4-(3-(3-Chlorophenyl)-1H-pyrrolo[3,2-c]pyridin-4-yl)morpholin] | – | > 5 | – | – |
| Clc1ccc(-c2c[nH]c3ncnc(N4CCOCC4)c23)cc1 [Compound 25, 4-(5-(4-Chlorophenyl)-7H-pyrrolo[2,3-d]pyrimidin-4-yl)morpholine] | 1 to 5 | < 1 | – | – |
| CC(=O)c1ccc(-c2c[nH]c3ncnc(N4CCOCC4)c23)cc1 [Compound 29, 1-(4-(4-morpholino-7H-pyrrolo[2,3-d]pyrimidin-5-yl)phenyl)ethan-1-one] | 1 to 5 | > 5 | – | – |
| Fc1c(-c2c[nH]c3ncnc(N4CCOCC4)c23)ccnc1Cl [Compound 33, 4-(5-(2-chloro-3-fluoropyridin-4-yl)-7H-pyrrolo[2,3-d]pyrimidin-4-yl)morpholine] | > 5 | > 5 | – | – |
| Clc1cccc(-c2c[nH]c3ncnc(N4CCCC4)c23)c1 [Compound 44, 5-(3-chlorophenyl)-4-(pyrrolidin-1-yl)-7H-pyrrolo[2,3-d]pyrimidine] | < 1 | < 1 | – | – |
| CC(=O)N1CCN(c2ncnc3[nH]cc(-c4cccc(Cl)c4)c23)CC1 [Compound 45, 1-(4-(5-(3-chlorophenyl)-7H-pyrrolo[2,3-d]pyrimidin-4-yl)piperazin-1-yl)ethan-1-one] | < 1 | 1 to 5 | – | – |
| Clc1cccc(-c2c[nH]c3ncnc(N4CCC4)c23)c1 [Compound 46, 4-(azetidin-1-yl)-5-(3-chlorophenyl)-7H-pyrrolo[2,3-d]pyrimidine] | 1 to 5 | 1 to 5 | – | – |
| CN1CCN(c2ncnc3[nH]cc(-c4cccc(Cl)c4)c23)CC1 [Compound 47, 5-(3-chlorophenyl)-4-(4-methylpiperazin-1-yl)-7H-pyrrolo[2,3-d]pyrimidine] | 1 to 5 | 1 to 5 | – | – |
| CCN1CCN(c2ncnc3[nH]cc(-c4cccc(Cl)c4)c23)CC1 [Compound 48, 5-(3-chlorophenyl)-4-(4-ethylpiperazin-1-yl)-7H-pyrrolo[2,3-d]pyrimidine] | > 5 | > 5 | – | – |
| CC1(O)CCN(c2ncnc3[nH]cc(-c4cccc(Cl)c4)c23)CC1 [Compound 103, 1-(5-(3-chlorophenyl)-7H-pyrrolo[2,3-d]pyrimidin-4-yl)-4-methylpiperidin-4-ol] | – | < 1 | – | – |
| CCN(CCO)c1ncnc2[nH]cc(-c3cccc(Cl)c3)c12 [Compound 114, 2-((5-(3-chlorophenyl)-7H-pyrrolo[2,3-d]pyrimidin-4-yl)(ethyl)amino)ethan-1-ol] | – | < 1 | – | – |

Further lines, with some results ahead:

| IC50 [1, 3] [µM] | IC50 [2, 4] [µM] | Structure (SMILES) | IC50 [2] [µM] | IC50 [1] [µM] |
| --- | --- | --- | --- | --- |
| 1 to 5 | 1 to 5 | Clc1ccccc1-c1c[nH]c2ncnc(N3CCOCC3)c12 [Compound 24, 4-(5-(2-Chlorophenyl)-7H-pyrrolo[2,3-d]pyrimidin-4-yl)morpholine] | – | – |
| < 1 | 1 to 5 | COc1ccc(-c2c[nH]c3ncnc(N4CCOCC4)c23)cc1 [Compound 26, 4-(5-(4-methoxyphenyl)-7H-pyrrolo[2,3-d]pyrimidin-4-yl)morpholine] | – | – |
| 1 to 5 | 1 to 5 | FC(F)(F)Oc1cccc(-c2c[nH]c3ncnc(N4CCOCC4)c23)c1 [Compound 27, 4-(5-(3-(trifluoromethoxy)phenyl)-7H-pyrrolo[2,3-d]pyrimidin-4-yl)morpholine] | – | – |
| 1 to 5 | 1 to 5 | FC(F)(F)Oc1ccc(-c2c[nH]c3ncnc(N4CCOCC4)c23)cc1 [Compound 28, 4-(5-(4-(trifluoromethoxy)phenyl)-7H-pyrrolo[2,3-d]pyrimidin-4-yl)morpholine] | – | – |
| 1 to 5 | 1 to 5 | Clc1ccc(-c2c[nH]c3ncnc(N4CCOCC4)c23)cc1Cl [Compound 30, 4-(5-(3,4-dichlorophenyl)-7H-pyrrolo[2,3-d]pyrimidin-4-yl)morpholine] | – | – |
| 1 to 5 | 1 to 5 | Clc1cc(-c2c[nH]c3ncnc(N4CCOCC4)c23)ccn1 [Compound 31, 4-(5-(2-chloropyridin-4-yl)-7H-pyrrolo[2,3-d]pyrimidin-4-yl)morpholine] | – | – |
| 1 to 5 | > 5 | Fc1cnc(Cl)cc1-c1c[nH]c2ncnc(N3CCOCC3)c12 [Compound 32, 4-(5-(2-chloro-5-fluoropyridin-4-yl)-7H-pyrrolo[2,3-d]pyrimidin-4-yl)morpholine] | – | – |
| > 5 | > 5 | Clc1ncccc1-c1c[nH]c2ncnc(N3CCOCC3)c12 [Compound 34, 4-(5-(2-chloropyridin-3-yl)-7H-pyrrolo[2,3-d]pyrimidin-4-yl)morpholine] | – | – |
| > 5 | > 5 | c1cc(-c2c[nH]c3ncnc(N4CCOCC4)c23)ccn1 [Compound 35, 4-(5-(pyridin-4-yl)-7H-pyrrolo[2,3-d]pyrimidin-4-yl)morpholine] | – | – |
| > 5 | > 5 | c1ncc(-c2c[nH]c3ncnc(N4CCOCC4)c23)cn1 [Compound 36, 4-(5-(pyrimidin-5-yl)-7H-pyrrolo[2,3-d]pyrimidin-4-yl)morpholine] | – | – |
| > 5 | > 5 | Cc1cnccc1-c1c[nH]c2ncnc(N3CCOCC3)c12 [Compound 37, 4-(5-(3-methylpyridin-4-yl)-7H-pyrrolo[2,3-d]pyrimidin-4-yl)morpholine] | – | – |
| > 5 | > 5 | COc1ncc(-c2c[nH]c3ncnc(N4CCOCC4)c23)cn1 [Compound 38, 4-(5-(2-methoxypyrimidin-5-yl)-7H-pyrrolo[2,3-d]pyrimidin-4-yl)morpholine] | – | – |
| > 5 | > 5 | CS(=O)(=O)c1cccc(-c2c[nH]c3ncnc(N4CCOCC4)c23)c1 [Compound 39, 4-(5-(3-(methylsulfonyl)phenyl)-7H-pyrrolo[2,3-d]pyrimidin-4-yl)morpholine] | – | – |
| > 5 | > 5 | CS(=O)(=O)c1ccc(-c2c[nH]c3ncnc(N4CCOCC4)c23)cc1 [Compound 40, 4-(5-(4-(methylsulfonyl)phenyl)-7H-pyrrolo[2,3-d]pyrimidin-4-yl)morpholine] | – | – |
| < 1 | 1 to 5 | Cn1cc(-c2c[nH]c3ncnc(N4CCOCC4)c23)cn1 [Compound 41, 4-(5-(1-methyl-1H-pyrazol-4-yl)-7H-pyrrolo[2,3-d]pyrimidin-4-yl)morpholine] | – | – |
| < 1 | 1 to 5 | c1nc(N2CCOCC2)c2c(-c3cnoc3)c[nH]c2n1 [Compound 42, 4-(5-(isoxazol-4-yl)-7H-pyrrolo[2,3-d]pyrimidin-4-yl)morpholine] | – | – |
| > 5 | > 5 | Cc1noc(C)c1-c1c[nH]c2ncnc(N3CCOCC3)c12 [Compound 43, 4-(5-(3,5-dimethylisoxazol-4-yl)-7H-pyrrolo[2,3-d]pyrimidin-4-yl)morpholine] | – | – |
| < 1 | < 1 | CCNc1ncnc2[nH]cc(-c3cccc(Cl)c3)c12 [Compound 49, 5-(3-chlorophenyl)-N-ethyl-7H-pyrrolo[2,3-d]pyrimidin-4-amine] | – | – |
